Test results published in patent US20110003868A1, “TREATMENT OF A NEUROPATHY WITH RAPID RELEASE AMINOPYRIDINE” (The UAB Research Foundation, priority 2003, published 2011).

Columns and labels:
[1] = tested on: subjects with GBS; assay: Phase II double-blind, placebo controlled, crossover study; motor strength on 0-5 ordinal scale; assay type: in vivo, human patients; settings: on average, fast release 4-AP 10 mg three times daily, oral capsule
Description: This is a Phase II double-blind, placebo controlled, crossover, dose-escalating study in subjects with […]. An initial trial of ten patients is randomized to one of the two treatment sequences (A or B) as shown below. The study population consists of subjects with GBS injury whose neurological status has been stable for at least eighteen months. Ten subjects are enrolled. Variables to be Collected: The measures of neurological status reported for this study are: • Motor strength was rated on the traditional 0-5 ordinal scale: • 0—absent motor strength • 1—trace motor strength • 2—can move the specified joint but only with gravity eliminated • 3—can move the joint against gravity but not against any opposing force • 4—can move the joint against opposing force but the strength is not normal for the person or symmetrical • 5—normal motor strength This scale is employed to measure the following motor strength for each of these joint motions on both the right and the left sides: hip flexion, hip adduction, hip abduction, knee flexion, knee extension, ankle dorsiflexion, ankle plantar flexion, shoulder abduction, elbow extension, elbow flexion, wrist flexion, and wrist extension. 4-AP is compounded in a #1 quick dissolution capsule containing 5 mg 4-AP and 235 mg lactose. […]

[2] = tested on: central nervous system; settings: has been reported, cited from earlier work

Row | Structure (SMILES) | Upper extremity strength increase relative to placebo [1] [%] | Lower extremity strength increase relative to placebo ([1]; hip abduction, hip adduction, hip flexion, knee flexion, ankle dorsiflexion and plantar flexion) [%] | Toxicity ([2]; compared with 4-AP or 2,3-DAP) | Central nervous system stimulation ([2]; compared with 4-AP)
1 | Nc1ccncc1 [4-AP, 4-aminopyridine] | 15 | 15 | – | –
2 | Nc1ccnc(N)c1 [2,4-DAP, 2,4-diaminopyridine] | – | – | less toxicity than either 4-AP or 2,3-DAP | less central nervous system stimulation than 4-AP
